According to EPA's ToxValDB 9.5 (doi:10.2903/j.efsa.2010.1632):
Converted amounts (≈) assume the structure as drawn.

What was measured:
Bibionidae = details: chronic/long-term; duration: 28 days; development
Neomysis kadiakensis = details: chronic/long-term; duration: 35 days; reproduction
Apis mellifera = details: acute; duration: 48 hours; dermal; mortality
Lycopersicon sp. = details: not reported; seedling emergence
Pimephales promelas = details: chronic/long-term; duration: 301 days; other
Oncorhynchus mykiss = details: acute; duration: 96 hours; mortality
Mus musculus = details: chronic; duration: 78 weeks; body weight
Cyprinodon variegatus = details: acute; duration: 96 hours; mortality
Oryctolagus sp. = details: reproduction developmental; body weight
Folsomia candida = details: chronic/long-term; duration: 28 days; reproduction
Rattus norvegicus = details: body weight
Daphnia magna = details: chronic/long-term; duration: 21 days; reproduction
Canidae = details: oral, Dog Other, body weight
Aphidius rhopalosiphi = assay: LR50; higher = less toxic; details: acute; duration: 48 hours; mortality

For CC(C)(C)c1ccc(CSc2cnn(C(C)(C)C)c(=O)c2Cl)cc1 [Pyridaben], the NOEC (Bibionidae) was 0.0051 mg/L, the NOEC (Neomysis kadiakensis) was 4.7e-05 mg/L and the LD50 (Anas platyrhynchos; acute, oral, unspecified, mortality) was greater than 2500 mg/kg-day. It also gave an NOEC (Anas platyrhynchos; reproductive) of 10 mg/kg-day, an NOEC (Anas platyrhynchos; short-term, oral, feed, mortality) of 659 mg/kg-day and an LD50 (Apis mellifera) greater than 0.024 µg/piece. The LC50 (Colinus virginianus; acute, oral, diet, mortality) was greater than 4300 mg/kg-day, the LD50 (Colinus virginianus; acute, oral, mortality) was greater than 2250 mg/kg-day and the NOEC (Colinus virginianus; reproduction developmental) was 130 mg/kg-day. It also gave an LEL (Lycopersicon sp.) of 560 g/ha, an NOEC (Pimephales promelas) of 0.00028 mg/L and an LC50 (Oncorhynchus mykiss) of 0.73 ng/mL (≈ 0.002 µM). It also gave an NOAEL (Mus musculus) of 0.81 mg/kg-day, an LC50 (Cyprinodon variegatus) of 17 ng/mL (≈ 0.0466 µM) and an NOAEL (Oryctolagus sp.) of 5 mg/kg-day. The LC50 (Tagia sp.; acute, duration: 14 days, mortality) was greater than 38 mg/kg, the NOEC (Tagia sp.; chronic/long-term, duration: 56 days, reproduction) was 0.29 mg/kg and the NOEC (Folsomia candida) was 3.28 mg/kg. It also gave an NOEC (Rattus norvegicus; chronic) of 2.37 mg/kg-day, an NOAEL (Rattus norvegicus; chronic, duration: 2 years) of 1.1 mg/kg-day and an NOAEL (Rattus norvegicus; reproduction developmental) of 4.7 mg/kg-day. For the same compound, the NOEC (Daphnia magna) was 8.6e-05 mg/L, the NOAEL (Canidae; chronic, duration: 1 years) was 1 mg/kg-day and the NOAEL (Canidae; subchronic, duration: 3 months) was 1 mg/kg-day. For the same compound, the LR50 (Aphidius rhopalosiphi) was 0.24 g/ha.
